According to patent US20210137966A1, “VIRUCIDAL COMPOUNDS AND USES THEREOF” (priority 2016, published 2021):

Tests used:
LV-VSV-G = format: cell-based, VSV-G pseudotyped lentivirus
HPV-16 = assay: Evaluation of virucidal activity against HPV-16; format: cell-based, human papillomavirus (HPV); conditions: FIG. 6
Procedure: (§1) Evaluation of Virucidal Activity Against HSV-2, HPV-16
(§2) Viral titers were calculated at dilutions at which the nanoparticle was not effective

HSV-2 [1] = assay: Evaluation of virucidal activity against HSV-2; format: cell-based; conditions: HSV-2, virucidal assay (FIG. 1/2 bottom)
Procedure: as §1, §2

HSV-2 [2] = assay: Inhibition assay HSV-2 (dose response, plaque reduction in Vero cells); format: cell-based; conditions: HSV-2, dose response assay (FIG. 1/2 top)
Procedure: The effect of cyclodextrins (CDs) on HSV infection was evaluated by a plaque reduction assay. Vero cells were pre-plated 24 h in advance in 24-well plates at a density of 10^5 cells. Increasing concentrations of cyclodextrins were incubated with HSV-2 (multiplicity of infection (MOI) 0.0003 plaque forming units (pfu)/cell) at 37° C. for 1 hour and then the mixtures were added to the cells. Following virus adsorption (2 h at 37° C.), the virus inoculum was removed, the cells were washed with medium and then overlaid with a medium containing 1.2% methylcellulose. After 24 h (HSV-2) of incubation at 37° C., cells were fixed and stained with 0.1% of crystal violet in 20% ethanol and viral plaques were counted. The concentration producing 50% reduction in plaque formation (IC50) was determined using the Prism software by comparing drug-treated and untreated wells.

Compound	Virucidal assay, Dilutions: 1:10 (LV-VSV-G)	Virucidal assay, Dilutions: Stock (LV-VSV-G)	Virucidal effect against human papillomavirus (HPV) (HPV-16)	Virucidal effect against HSV-2 in virucidal assay (HSV-2 [1])	Virucidal effect against Lenti virus (LV-VSV-G)	Inhibition of HSV-2 in dose response assay (HSV-2 [2])
O[C@@H]1[C@@H](O)[C@H]2O[C@H]3[C@H](O)[C@@H](O)[C@@H](O[C@H]4[C@H](O)[C@@H](O)[C@@H](O[C@H]5[C@H](O)[C@@H](O)[C@@H](O[C@H]6[C@H](O)[C@@H](O)[C@@H](O[C@H]7[C@H](O)[C@@H](O)[C@@H](O[C@H]8[C@H](O)[C@@H](O)[C@@H](O[C@@H]1[C@@H](CI)O2)O[C@@H]8CI)O[C@@H]7CI)O[C@@H]6CI)O[C@@H]5CI)O[C@@H]4CI)O[C@@H]3CI [CD1, Heptakis-6-iodo-6-deoxy-beta-cyclodextrin]	27.38	85.49	–	–	–	–
O=S(=O)(O)CCCCCCCCCCCSCC1OC2OC3C(CSCCCCCCCCCCCS(=O)(=O)O)OC(OC4C(CSCCCCCCCCCCCS(=O)(=O)O)OC(OC5C(CSCCCCCCCCCCCS(=O)(=O)O)OC(OC6C(CSCCCCCCCCCCCS(=O)(=O)O)OC(OC7C(CSCCCCCCCCCCCS(=O)(=O)O)OC(OC8C(CSCCCCCCCCCCCS(=O)(=O)O)OC(OC1C(O)C2O)C(O)C8O)C(O)C7O)C(O)C6O)C(O)C5O)C(O)C4O)C(O)C3O (stereo not shown) [CD2]	–	–	virucidal effect	Virucidal effect observed	virucidal effect	–
beta-cyclodextrin sulfonate [reference compound]	–	–	–	no virucidal effect is observed	–	Inhibition is observed at high concentrations
